Laboratory results published in PMC7721686, “Isolation, Characterization and Structure Elucidation of a Novel Lantibiotic From Paenibacillus sp” (Frontiers in Microbiology, 2020).
≈ marks a conversion by molar mass, not a printed value. Where two headings read alike, the source gives them in different places. Positions of bridges follow the written chain, without caps; N, C: chain ends. Non-standard residues stand in square brackets, D forms with d. Residues, ends and D or L forms follow the SMILES beside them. *: point of attachment. X1 = CC[C@H](C)CCCCC(=O)*; Dab = NCC[C@H](N)C(=O)O

Key:
[1] = tested on: Acinetobacter guillouiae CH42
[2] = tested on: Acinetobacter baumannii CH48
[3] = tested on: Acinetobacter baumannii CH51
[4] = tested on: Acinetobacter baumannii CH47
[5] = tested on: Acinetobacter baumannii CH54
[6] = tested on: Acinetobacter baumannii CH49
[7] = tested on: Acinetobacter septicus CH44; settings: CH44, A. septicus, drug resistance N
[8] = tested on: Acinetobacter baumannii CH50
[9] = tested on: Acinetobacter calcoaceticus CH37
[10] = tested on: Acinetobacter baumannii CH55
[11] = tested on: Acinetobacter ursingii CH41; settings: CH41, A. ursingii, drug resistance N
[12] = tested on: Acinetobacter baumannii CH38
[13] = tested on: Acinetobacter modestus CH43
[14] = tested on: Acinetobacter baumannii CH39
[15] = tested on: Acinetobacter baumannii CH45
[16] = tested on: Acinetobacter baumannii CH40
[17] = tested on: Multi-drug resistant A. baumannii CH-46; settings: Multi-drug resistant A. baumannii CH-46 (CH46 in Table S1, drug resistance Y); broth microplate dilution
[18] = tested on: Acinetobacter baumannii CH52
[19] = tested on: Acinetobacter baumannii CH53
[20] = tested on: Acinetobacter baumannii CH36
[21] = tested on: Acinetobacter baumannii CH39; assay: microbe, parasite or virus in culture
[22] = tested on: Acinetobacter septicus CH44; assay: microbe, parasite or virus in culture
[23] = tested on: Acinetobacter baumannii CH53; assay: microbe, parasite or virus in culture
[24] = tested on: Acinetobacter baumannii CH36; assay: microbe, parasite or virus in culture
[25] = tested on: Acinetobacter baumannii CH48; assay: microbe, parasite or virus in culture
[26] = tested on: Acinetobacter baumannii CH50; assay: microbe, parasite or virus in culture
[27] = tested on: Acinetobacter baumannii CH55; assay: microbe, parasite or virus in culture
[28] = tested on: Acinetobacter baumannii CH51; assay: microbe, parasite or virus in culture
[29] = tested on: Acinetobacter guillouiae CH42; assay: microbe, parasite or virus in culture
[30] = tested on: Acinetobacter baumannii CH47; assay: microbe, parasite or virus in culture
[31] = tested on: Acinetobacter baumannii CH45; assay: microbe, parasite or virus in culture
[32] = tested on: Acinetobacter baumannii CH49; assay: microbe, parasite or virus in culture
[33] = tested on: Multi-drug resistant A. baumannii CH-46; assay: microbe, parasite or virus in culture; settings: Acinetobacter baumannii
[34] = tested on: Acinetobacter calcoaceticus CH37; assay: microbe, parasite or virus in culture
[35] = tested on: Acinetobacter baumannii CH38; assay: microbe, parasite or virus in culture
[36] = tested on: Acinetobacter baumannii CH52; assay: microbe, parasite or virus in culture
[37] = tested on: Acinetobacter baumannii CH54; assay: microbe, parasite or virus in culture
[38] = tested on: Acinetobacter modestus CH43; assay: microbe, parasite or virus in culture
[39] = tested on: Acinetobacter baumannii CH40; assay: microbe, parasite or virus in culture
[40] = tested on: Acinetobacter ursingii CH41; assay: microbe, parasite or virus in culture
[41] = tested on: S. aureus (ATCC 29213); format: cell-based, Staphylococcus aureus; settings: overnight 37°C
[42] = tested on: MDR S. aureus (CH-11); format: cell-based, Staphylococcus aureus
[43] = tested on: S. aureus ATCC 29213 (SA) biofilm; assay: Anti-biofilm activity, pre-formed biofilm; format: cell-based, Staphylococcus aureus; settings: only at the highest concentration 100 μg/mL, 4 h, PrestoBlue
[44] = tested on: S. aureus ATCC 29213; assay: Inhibition of bacterial adhesion, pre-coated polystyrene plates; format: cell-based, Staphylococcus aureus; settings: wells pre-treated at 10 μg/mL, washed; bacteria incubated 1 to 24 h at 37°C, PrestoBlue

CC[C@H](C)CCCCC(=O)N[C@@H](CCN)C(=O)N[C@H](C(=O)N[C@@H](CCN)C(=O)N[C@H]1CCNC(=O)[C@H]([C@@H](C)O)NC(=O)[C@H](CCN)NC(=O)[C@H](CCN)NC(=O)[C@H](CC(C)C)NC(=O)[C@@H](CC(C)C)NC(=O)[C@H](CCN)NC1=O)[C@@H](C)O [Colistin] (X1-[Dab]T[Dab][Dab][Dab][dL]L[Dab][Dab]T; lactam 4-C (inferred); N-terminus assumed)
MIC [1]: 3.91 µg/mL (≈ 3.34 µM)
MIC [2]: 3.91 µg/mL (≈ 3.34 µM)
MIC [3]: 3.91 µg/mL (≈ 3.34 µM)
MIC [4]: 3.91 µg/mL (≈ 3.34 µM)
MIC [5]: 5.86 µg/mL (≈ 5.01 µM)
MIC [6]: 3.91 µg/mL (≈ 3.34 µM)
MIC [7]: 1.95 µg/mL (≈ 1.67 µM)
MIC [8]: 5.86 µg/mL (≈ 5.01 µM)
MIC [9]: 3.91 µg/mL (≈ 3.34 µM)
MIC [10]: 7.81 µg/mL (≈ 6.68 µM)
MIC [11]: 1.95 µg/mL (≈ 1.67 µM)
MIC [12]: 3.91 µg/mL (≈ 3.34 µM)
MIC [13]: 7.81 µg/mL (≈ 6.68 µM)
MIC [14]: 3.91 µg/mL (≈ 3.34 µM)
MIC [15]: 3.91 µg/mL (≈ 3.34 µM)
MIC [16]: 5.86 µg/mL (≈ 5.01 µM)
MIC [17]: 3.91 µg/mL (≈ 3.34 µM)
MIC [18]: 3.91 µg/mL (≈ 3.34 µM)
MIC [19]: 3.91 µg/mL (≈ 3.34 µM)
MIC [20]: 3.91 µg/mL (≈ 3.34 µM)

C[C@@H](O)[C@H]1C(=O)N2C(C(=O)O)=C(SCCN=CN)C[C@H]12 [Imipenem]
MIC [21]: 15.6 µg/mL (≈ 52.2 µM)
MIC [22]: 1.46 µg/mL (≈ 4.88 µM)
MIC [23]: 31.2 µg/mL (≈ 104 µM)
MIC [24]: 250 µg/mL (≈ 835 µM)
MIC [25]: 7.81 µg/mL (≈ 26.1 µM)
MIC [26]: 62.5 µg/mL (≈ 209 µM)
MIC [27]: 46.9 µg/mL (≈ 157 µM)
MIC [28]: 31.2 µg/mL (≈ 104 µM)
MIC [29]: 7.81 µg/mL (≈ 26.1 µM)
MIC [30]: 3.91 µg/mL (≈ 13.1 µM)
MIC [31]: 125 µg/mL (≈ 418 µM)
MIC [32]: 62.5 µg/mL (≈ 209 µM)
MIC [33]: 250 µg/mL (≈ 835 µM)
MIC [34]: 0.5 µg/mL (≈ 1.67 µM)
MIC [35]: 125 µg/mL (≈ 418 µM)
MIC [36]: 31.2 µg/mL (≈ 104 µM)
MIC [37]: 7.81 µg/mL (≈ 26.1 µM)
MIC [38]: 0.5 µg/mL (≈ 1.67 µM)
MIC [39]: 31.2 µg/mL (≈ 104 µM)
MIC [40]: 1 µg/mL (≈ 3.34 µM)

COc1cccc(OC)c1C(=O)N[C@@H]1C(=O)N2[C@@H]1SC(C)(C)[C@@H]2C(=O)O [Methicillin]
Frequency of Resistance to antibiotics ([41]; 2X MIC in Mueller-Hinton agar, resistant colonies / CFU of inoculum): < 3.72 × 10^–10
Frequency of Resistance to antibiotics ([41]; 3X MIC in Mueller-Hinton agar): < 3.72 × 10^–10
Frequency of Resistance to antibiotics ([41]; 4X MIC in Mueller-Hinton agar): < 3.72 × 10^–10
Frequency of Resistance to antibiotics ([41]; 5X MIC in Mueller-Hinton agar): < 3.72 × 10^–10
Frequency of Resistance to antibiotics ([41]; 10X MIC in Mueller-Hinton agar): < 3.72 × 10^–10
Frequency of Resistance to antibiotics [42]: resistant

CN[C@H](CC(C)C)C(=O)N[C@H]1C(=O)N[C@@H](CC(N)=O)C(=O)N[C@H]2C(=O)N[C@H]3C(=O)N[C@H](C(=O)N[C@H](C(=O)O)c4cc(O)cc(O)c4-c4cc3ccc4O)[C@H](O)c3ccc(c(Cl)c3)Oc3cc2cc(c3O[C@@H]2O[C@H](CO)[C@@H](O)[C@H](O)[C@H]2O[C@H]2C[C@](C)(N)[C@H](O)[C@H](C)O2)Oc2ccc(cc2Cl)[C@H]1O [vancomycin]
Effect on viability of pre-formed biofilm [43]: partially effective

B1: platelet factor 4: control cationic peptide (protein, UniProt P02776 32-101, looked up)
Platelet factor 4: EAEEDGDLQCLCVKTTSQVRPRHITSLEVIKAGPHCPTAQLIATLKNGRKICLDLQAPLYKKIIKKLLES
Inhibition of cell adhesion / biofilm formation on pre-treated polystyrene wells [44]: no effect on biofilm formation
